Assay results taken from patent publication US5378803A, “Azole-fused peptides and processes for preparation thereof” (Sterling Winthrop Inc., priority 1992, dated 1995).
Residues, ends and D or L forms follow the SMILES beside them.

Biological target: T1, Substance P (Cavia porcellus, UniProt P30547)
T1 construct: Strips of longitudinal muscle (derived from terminal ileum of adult male guinea pigs); from tissue; host or cells: longitudinal muscle strips of terminal ileum, adult male guinea pigs (Charles River)
Test: Guinea pig ileum test for Substance P antagonist effect
Format: cell-based
Conditions: isolated guinea pig ileum longitudinal muscle strips; Schild plot analysis; 5-10 min contact time; footnote a = limited data due to solubility, b = slope significantly different from -1; read-out: Substance P Antagonist pA2 (converted)
Procedure: As stated above the azole-fused peptides of Formula I are useful as Substance P antagonists and analgesics or as synthetic intermediates therefor.
Strips of longitudinal muscle (derived from terminal ileum of adult male guinea pigs (Charles River, 400-600 g.) are mounted in 5-ml. organ baths containing oxygenated Krebs solution containing l μM each of atropine and pyrilamine maintained at 30°-33° C. and connected to isometric transducers. Following tissue equilibration and repeated washing (45-60 min.), SP or an appropriate reference agonist is added cumulatively to the bath and contractions of the tissue are recorded. The bath is washed thoroughly and 30-45 min. is allowed to elapse before construction of a second reference agonist curve to assure reproducibility of the responses. Test compounds are similarly evaluated for agonist activity up to a maximum concentration of 10-100 μM. Regression analysis of the linear portion of the log concentration-percent maximal response curves provides the EC50 (and 95% confidence limits), the standard measure of agonist potency. When appropriate, relative molar potency ratios are calculated (EC50 reference/ED50 test drug). Antagonist activity is examined by pretreating thoroughly washed tissues with test compound (using a standard 5-10 min. contact time), then constructing a cumulative dose-response curve to the reference agonist. The effects of several concentrations of test antagonist, pooled across separate experiments, provide dose-ratio (EC50 shift) data for a standard Schild plot analysis, with computation of the pA2.

T1 sequence (P30547 whole entry): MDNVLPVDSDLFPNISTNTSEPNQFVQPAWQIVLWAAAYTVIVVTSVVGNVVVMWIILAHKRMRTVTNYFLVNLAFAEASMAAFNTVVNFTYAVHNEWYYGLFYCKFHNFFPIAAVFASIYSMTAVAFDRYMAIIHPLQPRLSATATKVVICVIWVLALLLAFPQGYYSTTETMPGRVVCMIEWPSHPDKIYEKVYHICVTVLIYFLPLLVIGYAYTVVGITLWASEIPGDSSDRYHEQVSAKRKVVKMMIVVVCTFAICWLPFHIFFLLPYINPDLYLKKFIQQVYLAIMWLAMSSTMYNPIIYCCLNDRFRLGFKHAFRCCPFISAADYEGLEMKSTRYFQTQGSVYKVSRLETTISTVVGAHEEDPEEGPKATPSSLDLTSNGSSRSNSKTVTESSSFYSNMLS

First: CC(C)c1sc([C@@H](Cc2c[nH]c3ccccc23)NC(=O)c2nc([C@@H](Cc3c[nH]c4ccccc34)NC(=O)[C@@H]3CCCN3)sc2-c2ccccc2)nc1C(=O)NC[C@@H](N)Cc1ccccc1 [Example 21]
Second: CC(C)c1sc([C@@H](Cc2c[nH]c3ccccc23)NC(=O)[C@H](Cc2ccccc2)NC(=O)[C@@H](Cc2c[nH]c3ccccc23)NC(=O)[C@@H]2CCCN2)nc1C(=O)NC[C@@H](N)Cc1ccccc1 [Example 25]
The Kb of the first is higher: greater than 10000 nM for the first, 794 nM for the second.

Compared with CC(C)C[C@H](NC(=O)[C@@H](Cc1c[nH]c2ccccc12)NC(=O)c1nc([C@@H](Cc2c[nH]c3ccccc23)NC(=O)[C@@H]2CCCN2)[nH]c1-c1ccccc1)C(=O)N[C@@H](Cc1ccccc1)C(N)=O [Example 16], CC(C)C[C@H](NC(=O)[C@@H](Cc1c[nH]c2ccccc12)NC(=O)c1nc([C@H](Cc2c[nH]c3ccccc23)NC(=O)[C@@H]2CCCN2)sc1-c1ccccc1)C(=O)N[C@@H](Cc1ccccc1)C(N)=O [Example 2] is 1.6-fold lower in Kb: 200 nM for the first, 126 nM for the second.

Compared with CC(C)C[C@H](NC(=O)[C@@H](Cc1c[nH]c2ccccc12)NC(=O)c1nc(C2Cc3c([nH]c4ccccc34)CN2)sc1-c1ccccc1)C(=O)N[C@@H](Cc1ccccc1)C(N)=O (single isomer, unassigned) [Example 8], CC(C)C[C@H](NC(=O)[C@@H](Cc1c[nH]c2ccccc12)NC(=O)c1nc([C@@H](Cc2c[nH]c3ccccc23)NC(=O)[C@@H]2CCCN2)sc1-c1ccccc1)C(=O)N[C@@H](Cc1ccccc1)C(N)=O [Example 3] is 160-fold lower in Kb: 7940 nM for the first, 50.1 nM for the second.

First: CC(C)C[C@H](NC(=O)[C@@H](Cc1c[nH]c2ccccc12)NC(=O)[C@H](Cc1ccccc1)NC(=O)[C@@H](Cc1c[nH]c2ccccc12)NC(=O)[C@@H]1CCCN1)c1ncc(-c2ccccc2)[nH]1 [Example 17] (HELM PEPTIDE1{P.[dW].F.[dW].[CC(C)C[C@H](N[*:1])c1ncc(-c2ccccc2)[nH]1]}$$$$V2.0)
Second: CC(C)C[C@H](NC(=O)[C@@H](Cc1c[nH]c2ccccc12)NC(=O)c1nc([C@@H](Cc2c[nH]c3ccccc23)NC(=O)[C@@H]2CCCN2)sc1-c1ccccc1)C(=O)N[C@@H](Cc1ccccc1)C(=O)O [Example 18]
The Kb of the first is 1.6-fold higher: 501 nM for the first, 316 nM for the second.

Compared with CC(C)c1sc([C@@H](Cc2c[nH]c3ccccc23)NC(=O)[C@H](Cc2ccccc2)NC(=O)[C@@H](Cc2c[nH]c3ccccc23)NC(=O)[C@@H]2CCCN2)nc1CN(C)CCc1ccccc1 [Example 27], CC(C)c1sc([C@@H](Cc2c[nH]c3ccccc23)NC(=O)[C@H](Cc2ccccc2)NC(=O)[C@@H](Cc2c[nH]c3ccccc23)NC(=O)[C@@H]2CCCN2)nc1C(=O)N[C@@H](Cc1ccccc1)C(N)=O [Example 4] (HELM PEPTIDE1{P.[dW].F.[CC(C)c1sc([C@@H](Cc2c[nH]c3ccccc23)N[*:1])nc1C(=O)[*:2]].F.[am]}$$$$V2.0) is lower in Kb: no less than 10000 nM for the first, 501 nM for the second.

First: CC(C)C[C@H](NC(=O)[C@@H](Cc1c[nH]c2ccccc12)NC(=O)c1nc([C@@H](Cc2c[nH]c3ccccc23)NC(=O)[C@@H]2CCCN2)oc1-c1ccccc1)C(=O)N[C@@H](Cc1ccccc1)C(N)=O [Example 24]
Second: CC(C)C[C@H](NC(=O)c1nc([C@H](Cc2ccccc2)NC(=O)[C@@H](Cc2c[nH]c3ccccc23)NC(=O)[C@@H]2CCCN2)oc1-c1c[nH]c2ccccc12)C(=O)N[C@@H](Cc1ccccc1)C(N)=O [Example 9]
The Kb of the first is 7.9-fold lower: 631 nM for the first, 5010 nM for the second.

First: CC(C)C[C@H](NC(=O)[C@@H](Cc1c[nH]c2ccccc12)NC(=O)c1nc(C2Cc3c([nH]c4ccccc34)CN2)sc1-c1ccccc1)C(=O)N[C@@H](Cc1ccccc1)C(N)=O (single isomer, unassigned) [Example 7]
Second: CC(C)C[C@H](NC(=O)c1nc([C@H](Cc2ccccc2)NC(=O)[C@@H](Cc2c[nH]c3ccccc23)NC(=O)[C@@H]2CCCN2)sc1-c1c[nH]c2ccccc12)C(=O)N[C@@H](Cc1ccccc1)C(N)=O [Example 6]
The Kb of the first is higher: greater than 10000 nM for the first, 1260 nM for the second.

Going from CN(C)CCNC(=O)[C@@H](Cc1c[nH]c2ccccc12)NC(=O)c1nc(C(Cc2c[nH]c3ccccc23)NC(=O)[C@@H]2CCCN2)sc1-c1ccccc1 (single isomer, unassigned) [Example 11] to CC(C)C[C@H](NC(=O)[C@@H](Cc1c[nH]c2ccccc12)NC(=O)c1nc([C@@H](Cc2c[nH]c3ccccc23)NC(=O)[C@@H]2CCCN2)sc1-c1ccccc1)C(=O)O [Example 19], the Kb rises from 7940 nM to greater than 10000 nM.

First: CN(C)CCNC(=O)[C@@H](Cc1c[nH]c2ccccc12)NC(=O)c1nc(C(Cc2c[nH]c3ccccc23)NC(=O)[C@@H]2CCCN2)sc1-c1ccccc1 (single isomer, unassigned) [Example 12]
Second: CC(C)C[C@H](NC(=O)[C@@H](Cc1c[nH]c2ccccc12)NC(=O)c1nc([C@@H](Cc2c[nH]c3ccccc23)NC(=O)[C@@H]2CCCN2)sc1-c1ccccc1)C(=O)N(C)C(Cc1ccccc1)C(N)=O (stereo partly drawn) [Example 22]
The Kb of the first is 63-fold higher: 5010 nM for the first, 79.4 nM for the second.

Going from CC(C)c1sc([C@H](Cc2c[nH]c3ccccc23)NC(=O)[C@H](Cc2ccccc2)NC(=O)[C@@H](Cc2c[nH]c3ccccc23)NC(=O)[C@@H]2CCCN2)nc1C(=O)N[C@@H](Cc1ccccc1)C(N)=O [Example 5] (HELM PEPTIDE1{P.[dW].F.[CC(C)c1sc([C@H](Cc2c[nH]c3ccccc23)N[*:1])nc1C(=O)[*:2]].F.[am]}$$$$V2.0) to CC(C)C[C@H](NC(=O)c1nc([C@H](Cc2ccccc2)NC(=O)[C@@H](Cc2c[nH]c3ccccc23)NC(=O)[C@@H]2CCCN2)[nH]c1-c1c[nH]c2ccccc12)C(=O)N[C@@H](Cc1ccccc1)C(N)=O [Example 10], the Kb rises from 126 nM to 1260 nM (10-fold).

Molecule CC(C)C[C@H](NC(=O)[C@@H](Cc1c[nH]c2ccccc12)NC(=O)c1nc([C@H](N)Cc2c[nH]c3ccccc23)sc1-c1ccccc1)C(=O)O [Example 20] has a Kb greater than 10000 nM.
